For the experiment, the system named is primary skin fibroblasts. Briefly: In vitro wound closure (migration) test in confluent fibroblast cultures. The experiment is classed as cell-based, mouse. Particulars: medium (DMEM with 2% FBS) supplemented with 25 ng/ml; syndecan-4+/+, +/- and -/- fibroblasts. How it is done:
Primary skin fibroblasts were isolated from newborn syndecan-4+/+, syndecan-4+/−, and syndecan-4−/− mice from the same litter. Mice were sacrificed, and their skins were removed, flattened, and floated on a 0.25% trypsin solution (Life Technologies Inc., Gaithersburg, Md., USA) at 4° C. overnight. The dermis was separated from the epidermis and dissociated by stirring at room temperature for 30 minutes in HBSS containing collagenase (500 μg/ml) (Life Technologies Inc.). The cell suspension of each skin was passed through a cell strainer (Becton Dickinson and Co., Franklin Lakes, N.J., USA) and transferred to a 10-cm cell culture dish and cultured as described previously (Saoncella et al.1999. Proc. Natl. Acad. Sci. USA. 96:2805-2810). Dermal fibroblasts were maintained at subconfluent densities and used between passages three and six.
Primary fibroblast cultures were established for 2 days in DMEM with 10% FBS followed by an overnight culture in DMEM with 2% FBS. In vitro wound closure tests were performed by creating clear lines in confluent cultures with a sterile yellow plastic pipette tip. After two washes with medium, the monolayers were covered with fresh medium and the migration of the cells into the cleared spaces was monitored over time. The control medium used during wound closure was DMEM with 2% FBS. […]

Take “EGF: growth factor (Becton Dickinson) added to culture medium (NSDSECPLSHDGYCLHDGVCMYIEALDKYACNCVVGYIGERCQYRDLKWWELR; Epidermal growth factor; UniProt P01133 971-1023, looked up)”: the “rate of wound closure” value is “did not alter the rate of wound closure”.
With “FGF-2: growth factor, ligand of the FGF-2 receptor (R&D Systems), added to culture medium”, the “rate of wound closure” value was “did not alter the rate of wound closure”.
